# Reference: patent publication US20200024662A1, “METHODS FOR TREATING OPIOID ADDICTION” (ASSUREX HEALTH, INC., priority 2016, published 2020)
# Assays:
# Type in all cases: in vivo, human
# [1] = tested on: patients treated with Methadone in the START trial; assay: PK/PD Model 3 binning vs Methadone completion
# Description: (§1) For the model analyses, models were developed that sort patients into one of three categories, Green (‘G’) Yellow (‘Y’) or Red (‘R’). Patients determined to be high risk for non-completion by the model are placed into the Red Bin. Patients at intermediate risk of non-completion are placed in the Yellow Bin, and for this study, Yellow Bin patients are treated the same as patients found to be at Low Risk of non-completion, or those who are placed in the Green Bin. Thus, the Green and Yellow bins are combined for analysis.
# Three separate PK/PD Models were generated by combining the PK model with each of the three PD models separately as follows. For each PKPD model, the corresponding PD risk score was added to the raw PK score (bin). A total PD risk score that was negative, represents a reduction of the baseline PK score, while a total PD risk score that was positive represented an increase in the baseline PK score.
# (§2) Samples from patients treated with Methadone in the START trial described in Example 1 above were used (N=352). […] Each model was tested as described below against Sample 1, Sample 2 and/or the Full Sample.
# (§3) Pearson's product moment, Chi-square with Yates correction were calculated. Diagnostic tests, odds ratios, Pearson's product moment, Chi-square with Yates correction were calculated using MEDCALC and R version 3.3.1.
# [2] = tested on: patients treated with Methadone in the START trial; assay: Completion of 24-week Methadone treatment, START samples of Example 2; settings: 24-week treatment
# Description: as §2
# [3] = tested on: patients treated with Methadone in the START trial; assay: PD Model 1 binning vs Methadone completion
# Description: as §1
# PD Model 1: The completion percentage was calculated for each genotype. For each gene and genotype completion percentage, the means and standard deviations were calculated. For each genotype that was greater than or equal to one standard deviation away from the mean, towards higher completion, a score of 1 was given. For each genotype that was greater than or equal to one standard deviation away from the mean, towards lower completion, a score of −1 was given. All others received a score of 0. The patient's PD risk was calculated by summing the total genotype risk score. The individual risk scores were combined to create the SumRisk variable; a final score of −1 was converted to Green, a score of 0 was converted to Yellow, and a score of 1 was converted to Red. […] A listing of tested alleles, and score assignments for PD Model 1 can be found in Table 16.
# as §2, §3
# [4] = tested on: patients treated with Methadone in the START trial; assay: Baseline model (GeneSight Analgesic test) binning vs Methadone completion; settings: Full Sample
# Description: as §1
# The GeneSight Analgesic test (commercial test available from Assurex Health, Inc.) was used as a baseline to determine High Risk patients entering methadone maintenance therapy. Furthremore, the following PK, PD and PK/PD models were evaluated.
# as §2, §3
# [5] = tested on: patients treated with Methadone in the START trial; assay: PK model (predicted exposure) binning vs Methadone completion
# Description: as §1
# The PK model represents a physiologically based pharmacokinetic algorithm that combines combinatorial pharmacogenetics with a physiological algorithm for predicting medication exposure, as described elsewhere herein. Model assignments to G Y or R were based on the therapeutic ranges provided by the literature for methadone as shown in Table 15.
# as §2, §3
# [6] = PK/PD Model 3, Full Sample, Green bin, Risk Score −1.3 to 1.3
# [7] = PK/PD Model 3, Full Sample, Red bin, Risk Score 2.4+
# [8] = PK/PD Model 3, Full Sample, Yellow bin, Risk Score 1.4 to 2.3
# [9] = PK/PD Model 3, Sample 1, Green bin, Risk Score −0.8 to 1.3
# [10] = PK/PD Model 3, Sample 1, Red bin, Risk Score 2.4 to 5.1
# [11] = PK/PD Model 3, Sample 1, Yellow bin, Risk Score 1.4 to 2.3
# [12] = PK/PD Model 3, Sample 2, Green bin, Risk Score −1.1 to 0.8
# [13] = PK/PD Model 3, Sample 2, Red bin, Risk Score 2.2 to 4.3
# [14] = PK/PD Model 3, Sample 2, Yellow bin, Risk Score 0.9 to 2.1
# [15] = PD Model 1, Full Sample, COMT Low Risk, SLC6A4 High Risk (Yellow)
# [16] = PD Model 1, Full Sample, COMT Low Risk, SLC6A4 Normal Risk (Green)
# [17] = PD Model 1, Full Sample, COMT Normal Risk, SLC6A4 High Risk (Red)
# [18] = PD Model 1, Full Sample, COMT Normal Risk, SLC6A4 Normal Risk (Yellow)
# [19] = PD Model 1, Full Sample, Green bin
# [20] = PD Model 1, Full Sample, Red bin
# [21] = PD Model 1, Full Sample, Yellow bin
# [22] = PD Model 1, Sample 1, COMT Low Risk, SLC6A4 High Risk (Yellow)
# [23] = PD Model 1, Sample 1, COMT Low Risk, SLC6A4 Normal Risk (Green)
# [24] = PD Model 1, Sample 1, COMT Normal Risk, SLC6A4 High Risk (Red)
# [25] = PD Model 1, Sample 1, COMT Normal Risk, SLC6A4 Normal Risk (Yellow)
# [26] = PD Model 1, Sample 1, Green bin
# [27] = PD Model 1, Sample 1, Yellow bin
# [28] = PD Model 1, Sample 2, COMT Low Risk, SLC6A4 High Risk (Yellow)
# [29] = PD Model 1, Sample 2, COMT Low Risk, SLC6A4 Normal Risk (Green)
# [30] = PD Model 1, Sample 2, COMT Normal Risk, SLC6A4 High Risk (Red)
# [31] = PD Model 1, Sample 2, COMT Normal Risk, SLC6A4 Normal Risk (Yellow)
# [32] = PD Model 1, Sample 2, Green bin
# [33] = PD Model 1, Sample 2, Yellow bin
smiles,measurement,setting,value
"CCC(=O)C(CC(C)N(C)C)(c1ccccc1)c1ccccc1 (stereo not shown) [Methadone, methadone]",Completers,[1]; [6],150
same,Non Completers,[1]; [6],7
same,Completers,[1]; [7],64
same,Non Completers,[1]; [7],28
same,Completers,[1]; [8],93
same,Non Completers,[1]; [8],10
same,Completers,[1]; [9],80
same,Non Completers,[1]; [9],2
same,Completers,[1]; [10],26
same,Non Completers,[1]; [10],12
same,Completers,[1]; [11],50
same,Non Completers,[1]; [11],6
same,Completers,[1]; [12],77
same,Non Completers,[1]; [12],2
same,Completers,[1]; [13],24
same,Non Completers,[1]; [13],10
same,Completers,[1]; [14],58
same,Non Completers,[1]; [14],5
same,Completers,[2]; Sample 1 (N=176),156
same,non-completers,[2]; Sample 1 (N=176),20
same,Completers,[2]; Sample 2 (N=176),159
same,non-completers,[2]; Sample 2 (N=176),17
same,Completers,[3]; [15],13
same,Non Completers,[3]; [15],1
same,Completers,[3]; [16],62
same,Non Completers,[3]; [16],4
same,Completers,[3]; [17],39
same,Non Completers,[3]; [17],13
same,Completers,[3]; [18],193
same,Non Completers,[3]; [18],27
same,Completers,[3]; [19],62
same,Non Completers,[3]; [19],4
same,Odds Ratio for non-completion,"[3]; PD Model 1, Full Sample, LR/HR vs. NR/NR",0.5499
same,Odds Ratio for non-completion,"[3]; PD Model 1, Full Sample, LR/NR vs. NR/HR",0.1935
same,Odds Ratio for non-completion,"[3]; PD Model 1, Full Sample, LR/NR vs. NR/NR",0.4612
same,Odds Ratio for non-completion,"[3]; PD Model 1, Full Sample, NR/HR vs. NR/NR",2.3827
same,Completers,[3]; [20],39
same,Non Completers,[3]; [20],13
same,Completers,[3]; [21],206
same,Non Completers,[3]; [21],28
same,Completers,[3]; [22],8
same,Non Completers,[3]; [22],0
same,Completers,[3]; [23],34
same,Non Completers,[3]; [23],1
same,Completers,[3]; [24],20
same,Non Completers,[3]; [24],7
same,Completers,[3]; [25],94
same,Non Completers,[3]; [25],12
same,Completers,[3]; [26],34
same,Non Completers,[3]; [26],1
same,Odds Ratio for non-completion,"[3]; PD Model 1, Sample 1, LR/HR vs. NR/NR",0.4447
same,Odds Ratio for non-completion,"[3]; PD Model 1, Sample 1, LR/NR vs. NR/HR",0.0840
same,Odds Ratio for non-completion,"[3]; PD Model 1, Sample 1, LR/NR vs. NR/NR",0.2304
same,Odds Ratio for non-completion,"[3]; PD Model 1, Sample 1, NR/HR vs. NR/NR",2.7417
same,Completers,"[3]; PD Model 1, Sample 1, Red bin",20
same,Non Completers,"[3]; PD Model 1, Sample 1, Red bin",7
same,Completers,[3]; [27],102
same,Non Completers,[3]; [27],12
same,Completers,[3]; [28],7
same,Non Completers,[3]; [28],0
same,Completers,[3]; [29],39
same,Non Completers,[3]; [29],2
same,Completers,[3]; [30],21
same,Non Completers,[3]; [30],6
same,Completers,[3]; [31],92
same,Non Completers,[3]; [31],9
same,Completers,[3]; [32],39
same,Non Completers,[3]; [32],2
same,Odds Ratio for non-completion,"[3]; PD Model 1, Sample 2, LR/HR vs. NR/NR",0.6491
same,Odds Ratio for non-completion,"[3]; PD Model 1, Sample 2, LR/NR vs. NR/HR",0.1795
same,Odds Ratio for non-completion,"[3]; PD Model 1, Sample 2, LR/NR vs. NR/NR",0.5242
same,Odds Ratio for non-completion,"[3]; PD Model 1, Sample 2, NR/HR vs. NR/NR",2.9206
same,Completers,"[3]; PD Model 1, Sample 2, Red bin",21
same,Non Completers,"[3]; PD Model 1, Sample 2, Red bin",6
same,Completers,[3]; [33],99
same,Non Completers,[3]; [33],9
same,Completers,[4]; Green bin,170
same,Non Completers,[4]; Green bin,19
same,Completers,[4]; Red bin,28
same,Non Completers,[4]; Red bin,3
same,Completers,[4]; Yellow bin,109
same,Non Completers,[4]; Yellow bin,23
same,Completers,"[5]; Full Sample, Green bin",181
same,Non Completers,"[5]; Full Sample, Green bin",11
same,Completers,"[5]; Full Sample, Red bin",33
same,Non Completers,"[5]; Full Sample, Red bin",22
same,Completers,"[5]; Full Sample, Yellow bin",93
same,Non Completers,"[5]; Full Sample, Yellow bin",12
same,Completers,"[5]; Sample 1, Green bin",91
same,Non Completers,"[5]; Sample 1, Green bin",6
same,Completers,"[5]; Sample 1, Red bin",12
same,Non Completers,"[5]; Sample 1, Red bin",8
same,Completers,"[5]; Sample 1, Yellow bin",53
same,Non Completers,"[5]; Sample 1, Yellow bin",6
same,Completers,"[5]; Sample 2, Green bin",94
same,Non Completers,"[5]; Sample 2, Green bin",7
same,Completers,"[5]; Sample 2, Red bin",13
same,Non Completers,"[5]; Sample 2, Red bin",6
same,Completers,"[5]; Sample 2, Yellow bin",52
same,Non Completers,"[5]; Sample 2, Yellow bin",4
